Results taken from patent publication US9556165B2 (priority 2012, dated 2017).
Values after ≈ are worked out from the molar mass of the structure shown.

Legend:
Experiment in all cases: MIC determination, broth microdilution (CLSI)
Assay type in all cases: cell-based
P. aeruginosa PAO1 = conditions: for MIC: Pseudomonas aeruginosa, PAO1, strain 6
S. aureus 133 = conditions: Staphylococcus aureus, 133, strain 11; read-out: strain 11 MIC
E. coli J62-TEM-3 = conditions: Escherichia coli, J62TEM3, read-out: strain 18 MIC, strain 18
M. catarrhalis ICB489 = conditions: for MIC: Moraxella catarrhalis, ICB489, strain 12
[1] = test system: P. aeruginosa 2297 (AmpC wt); conditions: for MIC: Pseudomonas aeruginosa, strain 7
E. cloacae 34654 = conditions: for MIC: Enterobacter cloacae, 34654, strain 3
[2] = test system: P. aeruginosa 2297-con (AmpC derepressed); conditions: for MIC: Pseudomonas aeruginosa, read-out: strain 8 MIC, strain 8
E. coli J62 = conditions: for MIC: Escherichia coli, J62, strain 17, read-out: strain 17 MIC
K. pneumoniae 60 = conditions: for MIC: Klebsiella pneumoniae, 60, strain 2
M. morganii 126/3048 = conditions: for MIC: Morganella morganii, 126/3048, strain 5
A. baumannii ATCC15308 = conditions: Acinetobacter baumannii, ATCC15308, strain 9
strain 20 = test system: strain 20
B. fragilis 6688 = conditions: Bacteroides fragilis, 6688, strain 15; read-out: strain 15 MIC
H. influenzae ATCC 49247 = conditions: Haemophilus influenzae, ATCC49247, strain 13; read-out: strain 13 MIC
S. pneumoniae 113 = conditions: Streptococcus pneumoniae, 113, strain 14; read-out: strain 14 MIC
strain 21 = test system: strain 21
C. freundii K21/3034 = conditions: for MIC: Citrobacter freundii, K21/3034, strain 4
E. coli ATCC25922 = conditions: for MIC: Escherichia coli, ATCC25922, strain 1
strain 19 = test system: strain 19
S. maltophilia ICB7569 = conditions: Stenotrophomonas maltophilia, ICB7569, strain 10

Row | Compound | MIC (P. aeruginosa PAO1) [mg/L] | MIC (S. aureus 133) [mg/L] | MIC (E. coli J62-TEM-3) [mg/L] | MIC (M. catarrhalis ICB489) [mg/L] | MIC [1] [mg/L] | MIC (E. cloacae 34654) [mg/L] | MIC [2] [mg/L] | MIC (E. coli J62) [mg/L] | MIC (K. pneumoniae 60) [mg/L] | MIC (M. morganii 126/3048) [mg/L] | MIC (A. baumannii ATCC15308) [mg/L] | MIC (strain 20) [mg/L] | MIC (B. fragilis 6688) [mg/L] | MIC (H. influenzae ATCC 49247) [mg/L] | MIC (S. pneumoniae 113) [mg/L] | MIC (strain 21) [mg/L] | MIC (C. freundii K21/3034) [mg/L] | MIC (E. coli ATCC25922) [mg/L] | MIC (strain 19) [mg/L] | MIC (S. maltophilia ICB7569) [mg/L] | also measured
1 | C[C@H]1[C@H](NC(=O)/C(=N\OCCOc2nc(C(=N)N)cs2)c2csc(N)n2)C(=O)N1S(=O)(=O)O [Example 31, (2S,3S)-3-{[(2Z)-2-(2-Amino-1,3-thiazol-4-yl)-2-({2-[(4-carbamimidoyl-1,3-thiazol-2-yl)oxy]ethoxy}imino)acetyl]amino}-2-methyl-4-oxoazetidine-1-sulfonic acid] | 8 (≈ 15.4 µM) | ≤ 0.063 | 32 (≈ 61.7 µM) | 0.25 (≈ 0.482 µM) | 8 (≈ 15.4 µM) | 0.25 (≈ 0.482 µM) | 32 (≈ 61.7 µM) | 0.25 (≈ 0.482 µM) | ≤ 0.063 | 0.25 (≈ 0.482 µM) | 1 (≈ 1.93 µM) | 0.25 (≈ 0.482 µM) | 4 (≈ 7.71 µM) | 0.25 (≈ 0.482 µM) | 8 (≈ 15.4 µM) | 0.25 (≈ 0.482 µM) | ≤ 0.063 | 0.125 (≈ 0.241 µM) | 0.125 (≈ 0.241 µM) | – | –
2 | C[C@H]1[C@H](NC(=O)/C(=N\OC(COc2ccc(C(=N)N)cc2)C(=O)O)c2csc(N)n2)C(=O)N1S(=O)(=O)O (mixture of isomers) [Example 26A, (2S and 2R)-2-({[(1Z)-1-(2-Amino-1,3-thiazol-4-yl)-2-{[(2S,3S)-2-methyl-4-oxo-1-sulfoazetidin-3-yl]amino}-2-oxoethylidene]amino}oxy)-3-(4-carbamidinoyl-phenoxy)propanoic acid] | – | ≤ 0.063 | 32 | – | – | – | – | – | – | – | 8 | – | 8 | 2 | 32 | – | – | – | – | 16 | strain 6 MIC (P. aeruginosa PAO1; strain 6): 1 mg/L; strain 12 MIC (M. catarrhalis ICB489; strain 12): ≦0.063 mg/L; strain 7 MIC [1]: 2 mg/L; strain 3 MIC (E. cloacae 34654; strain 3): 0.125 mg/L; strain 8 MIC ([2]; strain 8): 8 mg/L; strain 17 MIC (E. coli J62; strain 17): 0.125 mg/L; strain 2 MIC (K. pneumoniae 60; strain 2): 0.031 mg/L; strain 5 MIC (M. morganii 126/3048; strain 5): ≦0.063 mg/L; strain 20 MIC (strain 20): 0.125 mg/L; strain 21 MIC (strain 21): 0.125 mg/L; strain 4 MIC (C. freundii K21/3034; strain 4): ≦0.063 mg/L; strain 1 MIC (E. coli ATCC25922; strain 1): ≦0.063 mg/L; strain 19 MIC (strain 19): ≦0.063 mg/L
3 | C[C@H]1[C@H](NC(=O)/C(=N\OCCOc2cnc(C(=N)N)cn2)c2csc(N)n2)C(=O)N1S(=O)(=O)O [Example 30, (2S,3S)-3-{[(2Z)-2-(2-Amino-1,3-thiazol-4-yl)-2-({2-[(5-carbamimidoylpyrazin-2-yl)oxy]-ethoxy}imino)acetyl]amino}-2-methyl-4-oxoazetidine-1-sulfonic acid] | 4 (≈ 7.79 µM) | 0.125 (≈ 0.243 µM) | 16 (≈ 31.2 µM) | 0.25 (≈ 0.487 µM) | 4 (≈ 7.79 µM) | 0.25 (≈ 0.487 µM) | 32 (≈ 62.3 µM) | 0.25 (≈ 0.487 µM) | ≤ 0.063 | ≤ 0.063 | 1 (≈ 1.95 µM) | 0.25 (≈ 0.487 µM) | 8 (≈ 15.6 µM) | 0.5 (≈ 0.974 µM) | 4 (≈ 7.79 µM) | 0.25 (≈ 0.487 µM) | ≤ 0.063 | 0.125 (≈ 0.243 µM) | 0.25 (≈ 0.487 µM) | – | –
4 | Cc1cc(OCCO/N=C(\C(=O)N[C@@H]2C(=O)N(S(=O)(=O)O)[C@H]2C)c2csc(N)n2)ccc1C(=N)N [Example 14, (2S,3S)-3-{[(2Z)-2-(2-Amino-1,3-thiazol-4-yl)-2-{[2-(4-carbamimidoyl-3-methylphenoxy)ethoxy]imino}acetyl]amino}-2-methyl-4-oxoazetidine-1-sulfonic acid] | 4 (≈ 7.61 µM) | ≤ 0.063 | 32 (≈ 60.9 µM) | 0.25 (≈ 0.476 µM) | 8 (≈ 15.2 µM) | 0.5 (≈ 0.951 µM) | 32 (≈ 60.9 µM) | 1 (≈ 1.9 µM) | 1 (≈ 1.9 µM) | 0.5 (≈ 0.951 µM) | 2 (≈ 3.81 µM) | 0.5 (≈ 0.951 µM) | 16 (≈ 30.4 µM) | 0.5 (≈ 0.951 µM) | 8 (≈ 15.2 µM) | 0.5 (≈ 0.951 µM) | 0.25 (≈ 0.476 µM) | 0.5 (≈ 0.951 µM) | 0.5 (≈ 0.951 µM) | – | –
5 | C[C@H]1[C@H](NC(=O)/C(=N\OCCOc2ccc(C(=N)N)c(O)c2)c2csc(N)n2)C(=O)N1S(=O)(=O)O [Example 2, (2S,3S)-3-{[(2Z)-2-(2-Amino-1,3-thiazol-4-yl)-2-{[2-(4-carbamimidoyl-3-hydroxyphenoxy)ethoxy]imino}acetyl]amino}-2-methyl-4-oxoazetidine-1-sulfonic acid] | 2 (≈ 3.79 µM) | 0.25 (≈ 0.474 µM) | 32 (≈ 60.7 µM) | ≤ 0.063 | – | 0.25 (≈ 0.474 µM) | – | 0.25 (≈ 0.474 µM) | 0.125 (≈ 0.237 µM) | ≤ 0.063 | 4 (≈ 7.58 µM) | 0.125 (≈ 0.237 µM) | 16 (≈ 30.3 µM) | 0.5 (≈ 0.948 µM) | 16 (≈ 30.3 µM) | 0.25 (≈ 0.474 µM) | 0.125 (≈ 0.237 µM) | 0.125 (≈ 0.237 µM) | 0.125 (≈ 0.237 µM) | 0.125 (≈ 0.237 µM) | –
6 | C[C@H]1[C@H](NC(=O)/C(=N\OCCOc2ccc(C(=N)N)cc2Cl)c2csc(N)n2)C(=O)N1S(=O)(=O)O [Example 20, (2S,3S)-3-{[(2Z)-2-(2-Amino-1,3-thiazol-4-yl)-2-{[2-(4-carbamimidoyl-2-chlorophenoxy)ethoxy]imino}acetyl]amino}-2-methyl-4-oxoazetidine-1-sulfonic acid] | 8 (≈ 14.7 µM) | 0.125 (≈ 0.229 µM) | 32 (≈ 58.6 µM) | 0.5 (≈ 0.916 µM) | 8 (≈ 14.7 µM) | 2 (≈ 3.66 µM) | 32 (≈ 58.6 µM) | 2 (≈ 3.66 µM) | 2 (≈ 3.66 µM) | 2 (≈ 3.66 µM) | 2 (≈ 3.66 µM) | 2 (≈ 3.66 µM) | 16 (≈ 29.3 µM) | 0.5 (≈ 0.916 µM) | 16 (≈ 29.3 µM) | 1 (≈ 1.83 µM) | 1 (≈ 1.83 µM) | 2 (≈ 3.66 µM) | 2 (≈ 3.66 µM) | – | –
7 | C[C@H]1[C@H](NC(=O)/C(=N\OCCOc2ccc(C(=N)N)cc2)c2csc(N)n2)C(=O)N1S(=O)(=O)O [Example 9, (2S,3S)-3-{[(2Z)-2-(2-Amino-1,3-thiazol-4-yl)-2-{[2-(4-carbamimidoylphenoxy)ethoxy]imino}acetyl]amino}-2-methyl-4-oxoazetidine-1-sulfonic acid] | 2 (≈ 3.91 µM) | ≤ 0.063 | 16 (≈ 31.3 µM) | ≤ 0.063 | 2 (≈ 3.91 µM) | 0.125 (≈ 0.244 µM) | 16 (≈ 31.3 µM) | 0.25 (≈ 0.489 µM) | 0.125 (≈ 0.244 µM) | 0.125 (≈ 0.244 µM) | 0.5 (≈ 0.977 µM) | 0.125 (≈ 0.244 µM) | 8 (≈ 15.6 µM) | 0.25 (≈ 0.489 µM) | 4 (≈ 7.82 µM) | 0.125 (≈ 0.244 µM) | 0.125 (≈ 0.244 µM) | 0.125 (≈ 0.244 µM) | 0.125 (≈ 0.244 µM) | 32 (≈ 62.6 µM) | –
8 | C[C@H]1[C@H](NC(=O)/C(=N\OC(C)(C)COc2ccc(C(=N)N)cc2)c2csc(N)n2)C(=O)N1S(=O)(=O)O [Example 18, (2S,3S)-3-{[(2Z)-2-(2-Amino-1,3-thiazol-4-yl)-2-({[1-(4-carbamimidoylphenoxy)-2-methylpropan-2-yl]oxy}imino)acetyl]amino}-2-methyl-4-oxoazetidine-1-sulfonic acid] | 4 (≈ 7.41 µM) | 0.25 (≈ 0.463 µM) | 4 (≈ 7.41 µM) | 0.5 (≈ 0.927 µM) | 4 (≈ 7.41 µM) | 2 (≈ 3.71 µM) | 16 (≈ 29.7 µM) | 2 (≈ 3.71 µM) | 1 (≈ 1.85 µM) | 1 (≈ 1.85 µM) | 16 (≈ 29.7 µM) | 2 (≈ 3.71 µM) | 4 (≈ 7.41 µM) | 0.5 (≈ 0.927 µM) | 4 (≈ 7.41 µM) | 2 (≈ 3.71 µM) | 1 (≈ 1.85 µM) | 1 (≈ 1.85 µM) | 2 (≈ 3.71 µM) | 16 (≈ 29.7 µM) | –
9 | C[C@@H]1[C@H](NC(=O)/C(=N\OCCOc2ccc(C(=N)N)cc2)c2csc(N)n2)C(=O)N1S(=O)(=O)O [Example 11, (2R,3S)-3-{[(2Z)-2-(2-Amino-1,3-thiazol-4-yl)-2-{[2-(4-carbamimidoylphenoxy)ethoxy]imino}acetyl]amino}-2-methyl-4-oxoazetidine-1-sulfonic acid] | 1 (≈ 1.95 µM) | 0.125 (≈ 0.244 µM) | 8 (≈ 15.6 µM) | 0.125 (≈ 0.244 µM) | 2 (≈ 3.91 µM) | ≤ 0.063 | 16 (≈ 31.3 µM) | 0.25 (≈ 0.489 µM) | ≤ 0.125 | ≤ 0.063 | 0.5 (≈ 0.977 µM) | 0.25 (≈ 0.489 µM) | 8 (≈ 15.6 µM) | 0.5 (≈ 0.977 µM) | 4 (≈ 7.82 µM) | 0.25 (≈ 0.489 µM) | ≤ 0.125 | 0.125 (≈ 0.244 µM) | 0.25 (≈ 0.489 µM) | 32 (≈ 62.6 µM) | –
